Assay: Inhibition of Escherichia coli FimH by competitive binding assay

Q: For `CNC(=O)c1cccc(-c2ccc(O[C@H]3O[C@H](CO)[C@@H](O)[C@H](C(O)[C@H]4O[C@H](CO)[C@@H](O)[C@H](O)[C@@H]4O)[C@@H]3O)cc2)c1` (stereo partly drawn), which Kd is on record?
A: 29 nM

Q: For `O=C1NCC(c2ccc(O[C@H]3O[C@H](CO)[C@@H](O)[C@H](C[C@H]4O[C@H](CO)[C@@H](O)[C@H](O)[C@@H]4O)[C@@H]3O)cc2)=C(O)N1`, which Kd is on record?
A: 111 nM

Q: With `CNC(=O)c1ccc(-c2ccc(C)c(O[C@H]3O[C@H](CO)[C@@H](O)[C@H](C[C@H]4O[C@H](CO)[C@@H](O)[C@H](O)[C@@H]4O)[C@@H]3O)c2)cc1` as the molecule, how does the Kd read?
A: 19 nM
